System: LNCaP cell lines
Assay: WST-1 Cell Proliferation and Viability Assay
Type: cell-based
Details: Homo sapiens, LNCaP cells
Experimental: WST-1 Cell Proliferation and Viability Assay
Cell proliferation and cell viability was assessed using the tetrazolium salt WST-1 (Roche Applied Science, Indianapolis Ind.). The assay is based on the cleavage of WST-1 (light red) by mitochondrial dehydrogenase causing the formation of formazan (dark red), which can be measured on an optical density (O.D.) reader. LNCaP cell lines were plated in 96 well tissue culture plates (Corning Costar, N.Y.) at a density of 5000 cells/well in 150 μl complete media phenol-red free (RPMI-1640 [Invitrogen, Carlsbad Calif.] and 10% fetal calf serum). This plate is termed the assay plate. After the cells are plated, they are then incubated overnight at 37 degrees Celsius in a humidified chamber containing 5% CO2 (incubator).
Compounds are added to the assay plate in 50 μl of complete media and 0.4% DMSO (v:v) making the final DMSO concentration 0.1%. The assay plate is then returned to the incubator for 18-72 hours. WST-1 reagent is then added (20 μl/well) and the plate is placed on an ELISA plate shaker for 30 minutes at room temperature. Plates are then transferred back to the incubator for an additional 3 hours. Plates are then read on a 96 well plate O.D. reader at A490-A650.

[1] = compound incubation 18-72 hours
[2] = flagged "Estimated": based on actual data at different concentrations

Row | EC50 [1] [µM] | EC50 [2] [µM] | SMILES
1 | 11 |  | Cc1cccc(OCCc2ccccc2C(F)(F)F)c1NC(=O)c1cc(Cl)ccc1O [Compound 173]
2 | 26 |  | O=C(Nc1cccc(OCCc2ccccc2)c1)c1ccccc1O [Compound 197]
3 | 1 |  | O=C(Nc1cc(C(F)(F)F)ccc1OCCOc1ccc(Cl)cc1)c1cc(Cl)ccc1O [Compound 300]
4 | 0.9 |  | O=C(Nc1cc(C(F)(F)F)ccc1OCCc1ccccc1Cl)c1cc(Cl)ccc1O [Compound 247]
5 |  | 32 | COc1ccccc1CCOc1cccc(N(C)C(=O)c2cc(Cl)ccc2OC)c1 [Compound 216]
6 | 6 |  | O=C(Nc1ccccc1OC1CCCC[C@H]1c1ccccc1)c1cc(Cl)ccc1O (some centres unmarked) [Compound 126]
7 |  | 30 | O=C(NCc1cccc(C(F)(F)F)c1)c1cc(Cl)ccc1O [Compound 121]
8 | 19 |  | COc1ccccc1CCOc1cccc(NC(=O)c2cc(Cl)ccc2NS(C)(=O)=O)c1 [Compound 337]
9 | 9 |  | COc1ccccc1CCOc1cccc(NC(=O)c2cc(-c3cccc(C(C)C)c3)ccc2O)c1 [Compound 345]
10 | 0.4 |  | O=C(Nc1cc(C(F)(F)F)ccc1OCCc1cccc(C(F)(F)F)c1)c1cc(Cl)ccc1O [Compound 155]
11 | 33 |  | COc1ccccc1CCOc1cccc(NC(=O)c2cccc(C)c2O)c1 [Compound 207]
12 | 6 |  | Cc1ccc(NC(=O)c2cc(Cl)ccc2O)c(OCCc2ccccc2)c1 [Compound 150]
13 | 16 |  | COc1ccccc1CCOc1cccc(NC(=O)c2cc(-c3ccccc3Oc3ccccc3)ccc2O)c1 [Compound 344]
14 |  | 20 | O=C(NCCc1ccccc1OCc1ccccc1)c1cc(Cl)ccc1O [Compound 119]
15 | 0.8 |  | Cc1cc(C)c(CCOc2ccc(C(F)(F)F)cc2NC(=O)c2cc(Cl)ccc2O)c(C)c1 [Compound 135]
16 | 3 |  | CCOCCOCCOc1ccc(C(F)(F)F)cc1NC(=O)c1cc(Cl)ccc1O [Compound 298]
17 | 0.9 |  | O=C(Nc1cc(C(F)(F)F)ccc1OCCc1cccc(OC(F)(F)F)c1)c1cc(Cl)ccc1O [Compound 285]
18 | 8 |  | Cc1cc(C)cc(COc2cccc(NC(=O)c3cc(Cl)ccc3O)c2)c1 [Compound 105]
19 | 1 |  | O=C(Nc1cc(C(F)(F)F)ccc1OC1CCCCC1c1ccccc1)c1cc(Cl)ccc1O (centres unmarked) [Compound 280]
20 | 2 |  | Cc1ccc(COc2ccc(Cl)cc2NC(=O)c2cc(Cl)ccc2O)cc1 [Compound 306]
21 | 3.3 |  | COC(=O)CCc1ccccc1CCOc1ccc(Cl)cc1NC(=O)c1cc(Cl)ccc1O [Compound 303]

Row | EC50 [1] [µM] | EC50 [2] [µM] | SMILES
22 | 0.9 |  | O=C(Nc1cc(C(F)(F)F)ccc1OCc1ccccc1)c1cc(Cl)ccc1O [Compound 266]
23 | 3 |  | CN(C)c1ccc(CCOc2ccc(Cl)cc2NC(=O)c2cc(Cl)ccc2O)cc1 [Compound 108]
24 | 8 |  | COc1ccccc1CCCOc1cccc(NC(=O)c2cc(Cl)ccc2O)c1 [Compound 16]
25 |  | 30 | COc1cccc(-c2cccc(CNC(=O)c3cc(Cl)ccc3O)c2)c1 [Compound 317]
26 | 32 |  | COc1ccc(C(=O)Nc2cccc(OCCc3ccccc3)c2)c(O)c1 [Compound 185]
27 |  | 30 | O=C(NCc1ccccc1-c1ccccc1)c1cc(Cl)ccc1O [Compound 237]
28 | 23 |  | CC(=O)Nc1cccc(C(=O)Nc2cccc(OCCc3ccccc3)c2)c1O [Compound 2]
29 |  | 30 | COc1ccccc1CCOc1cccc(N(C)C(=O)c2cc(Cl)ccc2O)c1 [Compound 228]
30 | 3 |  | O=C(Nc1cc(Cl)cc(Cl)c1OCCc1ccccc1C(F)(F)F)c1cc(Cl)ccc1O [Compound 172]
31 | 4 |  | CCN(Cc1ccncc1)c1ccc(NC(=O)c2cc(Cl)ccc2O)c(OCCc2cccc(C(F)(F)F)c2)c1 [Compound 377]
32 | 35 |  | O=C(NCc1cccc(-c2ccccc2)c1)c1cc(F)ccc1O [Compound 190]
33 | 0.7 |  | O=C(Nc1cc(C(F)(F)F)ccc1OCCc1ccc(C(F)(F)F)cc1)c1cc(Cl)ccc1O [Compound 160]
34 | 15 |  | COc1ccccc1CCOc1cccc(NC(=O)c2cc(Cl)c(F)cc2O)c1 [Compound 355]
35 | 17.4 |  | CN1CCN(c2ccc(C(F)(F)F)cc2NC(=O)c2cc(Cl)ccc2O)CC1 [Compound 309]
36 | 7 |  | O=C(Nc1cccc(OCCc2ccccc2)c1)c1cc(Br)ccc1O [Compound 193]
37 | 2 |  | COc1ccc(CCOc2ccc(Cl)cc2NC(=O)c2cc(Cl)ccc2O)cc1 [Compound 79]
38 | 40 |  | O=C(Nc1cccc(NCc2ccc3c(c2)OCO3)c1)c1cc(Cl)ccc1O [Compound 11]
39 | 8 |  | O=CNc1cc(Cl)cc(C(=O)Nc2cccc(OCCc3ccccc3)c2)c1O [Compound 124]
40 | 2 |  | O=C(Nc1cc(C(F)(F)F)cc(Cl)c1OCCc1ccc(Cl)cc1)c1cc(Cl)ccc1O [Compound 263]
41 |  | 30 | CCc1ccccc1-c1cccc(CNC(=O)c2cc(Cl)ccc2O)c1 [Compound 146]
42 | 2 |  | O=C(Nc1cc(Cl)ccc1OCC(c1ccccc1)c1ccccc1)c1cc(Cl)ccc1O [Compound 117]

Row | EC50 [1] [µM] | EC50 [2] [µM] | SMILES
43 |  | 47 | O=C(NCc1cccc(-c2ccccc2)c1)c1ccccc1O [Compound 199]
44 | 10 |  | Cc1ccc(NC(=O)c2cc(Cl)ccc2O)cc1 [Compound 114]
45 | 4 |  | CN(C)c1ccc(CCOc2cccc(NC(=O)c3cc(Cl)ccc3O)c2)cc1 [Compound 47]
46 | 2 |  | Cc1cc(C)c(OCCc2cccc(C(F)(F)F)c2)c(NC(=O)c2cc(Cl)ccc2O)c1 [Compound 159]
47 |  | 20 | O=C(NCc1cccc(-c2ccccc2)c1)c1cc(-c2ccc(F)cc2F)ccc1O [Compound 220]
48 | 26 |  | COc1ccc(NC(=O)c2cc(Cl)ccc2O)c(OC)c1 [Compound 256]
49 | 0.8 |  | O=C(Nc1cc(C(F)(F)F)ccc1OCCc1ccc(Cl)cc1)c1cc(Cl)ccc1O [Compound 129]
50 | 14 |  | O=C(NCCc1cccc(OCCc2ccccc2)c1)c1cc(Cl)ccc1O [Compound 143]
51 | 50 |  | O=C(NCc1cccc(Oc2ccccc2)c1)c1cc(Cl)ccc1O [Compound 67]
52 | 9 |  | COc1ccccc1CCOc1cccc(NC(=O)c2cc(Br)ccc2O)c1 [Compound 194]
53 | 1 |  | O=C(Nc1cc(Cl)ccc1OCCc1ccc(F)cc1)c1cc(Cl)ccc1O [Compound 106]
54 | 4 |  | O=C(Nc1cc(OCCc2ccccc2)ccc1Cl)c1cc(Cl)ccc1O [Compound 27]
55 | 33 |  | COc1ccccc1CCOc1cccc(NC(=O)c2cccc(C(C)C)c2O)c1 [Compound 203]
56 | 17 |  | COc1ccccc1CCOc1cccc(NC(=O)c2cc(-c3ccc4c(c3)OCO4)ccc2O)c1 [Compound 348]
57 | 16 |  | COc1ccccc1CCOc1cccc(NC(=O)c2cc(-c3cccs3)ccc2O)c1 [Compound 356]
58 | 0.83 |  | COC(=O)c1ccc(COc2ccc(C(F)(F)F)cc2NC(=O)c2cc(Cl)ccc2O)cc1 [Compound 308]
59 | 5 |  | O=C(Nc1cccc(OCC2(c3ccccc3)CC2)c1)c1cc(Cl)ccc1O [Compound 44]
60 | 4 |  | O=C(Nc1cccc(Cl)c1OCCc1ccccc1)c1cc(Cl)ccc1O [Compound 154]
61 | 37 |  | CC(C)c1cc(C(=O)Nc2cccc(OCCc3ccccc3)c2)c(O)c(C(C)C)c1 [Compound 200]
62 | 0.9 |  | CC(C)C(COc1ccc(C(F)(F)F)cc1NC(=O)c1cc(Cl)ccc1O)c1ccc(Cl)cc1 (centres unmarked) [Compound 283]
